Results: patent US9896435B2, “N-pyrrolidinyl,N′-pyrazolyl-urea, thiourea, guanidine and cyanoguanidine compounds as TrkA kinase inhibitors” (Array BioPharma Inc., priority 2012, dated 2018)

Key:
Assay in all cases: KinaseProfiler off-target kinase profiling
Type in all cases: biochemical
Conditions in all cases: 10 μM, ATP near Km
[1] = target: FAK (Homo sapiens (Human), UniProt Q05397)
Protocol: (§1) Two representative compounds (Example 2, 14) of the invention were tested for off-target kinase activity at a concentration of 10 μM by Millipore, Inc. in their KinaseProfiler™ service against all the kinases available in their full kinase panel. These compounds were run in duplicate at a concentration of ATP near the Km for each individual kinase according to Millipore's specifications. The results are shown in Table B. Data are reported as percent of control (POC) and are the average of the two replicates.

[2] = target: EphB2 (Homo sapiens (Human), UniProt P29323)
Protocol: as §1

[3] = target: GRK6 (Homo sapiens (Human), UniProt P43250)
Sequence of GRK6 (P43250 whole entry): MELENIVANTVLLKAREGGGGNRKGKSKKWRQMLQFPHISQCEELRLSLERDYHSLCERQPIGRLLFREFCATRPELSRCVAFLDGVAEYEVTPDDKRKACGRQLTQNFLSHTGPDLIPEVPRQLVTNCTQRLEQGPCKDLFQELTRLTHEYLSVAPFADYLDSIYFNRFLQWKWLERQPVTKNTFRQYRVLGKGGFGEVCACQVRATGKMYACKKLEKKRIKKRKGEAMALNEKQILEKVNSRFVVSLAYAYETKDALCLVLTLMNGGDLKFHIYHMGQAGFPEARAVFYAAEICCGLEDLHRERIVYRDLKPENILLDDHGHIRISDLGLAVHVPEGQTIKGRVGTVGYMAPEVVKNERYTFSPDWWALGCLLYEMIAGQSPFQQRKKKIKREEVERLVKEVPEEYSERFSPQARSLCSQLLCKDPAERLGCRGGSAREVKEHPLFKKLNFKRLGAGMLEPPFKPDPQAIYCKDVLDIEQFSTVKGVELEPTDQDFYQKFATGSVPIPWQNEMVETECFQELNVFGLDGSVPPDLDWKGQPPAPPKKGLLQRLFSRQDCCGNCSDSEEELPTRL
Protocol: as §1

[4] = target: CDK2/cyclinE (Homo sapiens (Human), UniProt P24941)
Protocol: as §1

[5] = target: MST2 (Homo sapiens (Human), UniProt Q13188)
Protocol: as §1

[6] = target: mTOR/FKBP12 (Homo sapiens (Human), UniProt P42345)
Protocol: as §1

[7] = target: CAMK2b (Homo sapiens (Human), UniProt Q13554)
Protocol: as §1

[8] = target: p38beta (Homo sapiens (Human), UniProt Q15759)
Protocol: as §1

[9] = target: JNK1alpha1 (Homo sapiens (Human), UniProt P45983)
Protocol: as §1

[10] = target: EphA1 (Homo sapiens (Human), UniProt P21709)
Protocol: as §1

[11] = target: EphA7 (Homo sapiens (Human), UniProt Q15375)
Protocol: as §1

[12] = target: MAP3K5 (Homo sapiens (Human), UniProt Q99683)
Sequence of MAP3K5 (Q99683 whole entry): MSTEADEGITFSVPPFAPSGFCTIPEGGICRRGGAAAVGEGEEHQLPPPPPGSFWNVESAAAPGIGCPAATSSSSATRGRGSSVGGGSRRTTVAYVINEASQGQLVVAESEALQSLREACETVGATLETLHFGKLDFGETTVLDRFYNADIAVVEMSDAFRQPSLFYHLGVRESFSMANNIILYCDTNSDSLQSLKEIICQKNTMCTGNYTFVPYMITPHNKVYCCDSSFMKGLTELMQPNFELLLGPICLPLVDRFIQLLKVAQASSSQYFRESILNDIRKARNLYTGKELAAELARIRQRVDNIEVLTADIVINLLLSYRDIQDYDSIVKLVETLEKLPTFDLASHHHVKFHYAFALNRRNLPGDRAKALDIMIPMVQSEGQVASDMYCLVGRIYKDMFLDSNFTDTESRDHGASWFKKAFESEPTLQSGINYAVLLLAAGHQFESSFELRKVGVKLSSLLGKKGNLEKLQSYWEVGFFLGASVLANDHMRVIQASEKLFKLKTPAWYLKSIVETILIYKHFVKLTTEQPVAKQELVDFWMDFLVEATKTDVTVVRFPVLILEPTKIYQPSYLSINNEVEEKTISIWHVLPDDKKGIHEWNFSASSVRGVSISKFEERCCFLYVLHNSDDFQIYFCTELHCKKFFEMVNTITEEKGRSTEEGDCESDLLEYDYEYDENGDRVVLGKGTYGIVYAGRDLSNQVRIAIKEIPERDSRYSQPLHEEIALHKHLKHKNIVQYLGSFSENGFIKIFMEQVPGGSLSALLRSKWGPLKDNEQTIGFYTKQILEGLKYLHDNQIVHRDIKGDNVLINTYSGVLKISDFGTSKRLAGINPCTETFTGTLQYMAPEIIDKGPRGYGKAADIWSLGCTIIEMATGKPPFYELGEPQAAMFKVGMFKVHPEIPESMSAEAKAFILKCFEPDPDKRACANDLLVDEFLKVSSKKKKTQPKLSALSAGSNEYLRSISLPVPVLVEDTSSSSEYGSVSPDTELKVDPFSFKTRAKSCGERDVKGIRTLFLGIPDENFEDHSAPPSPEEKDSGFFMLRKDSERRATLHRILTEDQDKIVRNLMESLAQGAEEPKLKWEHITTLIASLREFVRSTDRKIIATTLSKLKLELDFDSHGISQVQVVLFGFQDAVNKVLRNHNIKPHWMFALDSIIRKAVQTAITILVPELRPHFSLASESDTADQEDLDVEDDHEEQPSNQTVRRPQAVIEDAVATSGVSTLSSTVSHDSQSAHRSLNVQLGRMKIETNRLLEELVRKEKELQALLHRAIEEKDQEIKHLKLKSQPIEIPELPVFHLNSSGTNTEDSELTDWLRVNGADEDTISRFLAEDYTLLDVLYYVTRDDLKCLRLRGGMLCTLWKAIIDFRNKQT
Protocol: as §1

[13] = target: WNK2 (Homo sapiens (Human), UniProt Q9Y3S1)
Protocol: as §1

[14] = target: JNK2alpha2 (Homo sapiens (Human), UniProt P45984)
Protocol: as §1

[15] = target: Hck (Homo sapiens (Human), UniProt P08631)
Protocol: as §1

[16] = target: MKK6 (Homo sapiens (Human), UniProt P52564)
Protocol: as §1

[17] = target: p70S6K (Homo sapiens (Human), UniProt P23443)
Sequence of p70S6K (P23443 whole entry): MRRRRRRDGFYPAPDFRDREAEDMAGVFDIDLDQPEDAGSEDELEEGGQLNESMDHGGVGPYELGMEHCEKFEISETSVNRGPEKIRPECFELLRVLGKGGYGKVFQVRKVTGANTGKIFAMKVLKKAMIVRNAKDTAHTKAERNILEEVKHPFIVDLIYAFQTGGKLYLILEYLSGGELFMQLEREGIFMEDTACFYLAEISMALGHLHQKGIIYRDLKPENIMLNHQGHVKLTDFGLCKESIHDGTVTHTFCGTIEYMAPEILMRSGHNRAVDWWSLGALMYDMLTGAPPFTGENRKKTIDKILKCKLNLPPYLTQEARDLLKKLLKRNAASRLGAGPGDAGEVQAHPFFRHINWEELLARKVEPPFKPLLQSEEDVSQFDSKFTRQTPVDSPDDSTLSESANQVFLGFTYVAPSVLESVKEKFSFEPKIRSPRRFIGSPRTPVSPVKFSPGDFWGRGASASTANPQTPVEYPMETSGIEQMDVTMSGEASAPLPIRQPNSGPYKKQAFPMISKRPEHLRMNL
Protocol: as §1

[18] = target: eEF-2K (Homo sapiens (Human), UniProt O00418)
Protocol: as §1

[19] = target: CDK6/cyclinD3 (Homo sapiens (Human), UniProt Q00534)
Protocol: as §1

[20] = target: TAO2 (Homo sapiens (Human), UniProt Q9UL54)
Protocol: as §1

[21] = target: ErbB4 (Homo sapiens (Human), UniProt Q15303)
Protocol: as §1

[22] = target: CDK1/cyclinB (Homo sapiens (Human), UniProt P06493)
Protocol: as §1

[23] = target: CK2alpha2 (Homo sapiens (Human), UniProt P19784)
Sequence of CK2alpha2 (P19784 whole entry): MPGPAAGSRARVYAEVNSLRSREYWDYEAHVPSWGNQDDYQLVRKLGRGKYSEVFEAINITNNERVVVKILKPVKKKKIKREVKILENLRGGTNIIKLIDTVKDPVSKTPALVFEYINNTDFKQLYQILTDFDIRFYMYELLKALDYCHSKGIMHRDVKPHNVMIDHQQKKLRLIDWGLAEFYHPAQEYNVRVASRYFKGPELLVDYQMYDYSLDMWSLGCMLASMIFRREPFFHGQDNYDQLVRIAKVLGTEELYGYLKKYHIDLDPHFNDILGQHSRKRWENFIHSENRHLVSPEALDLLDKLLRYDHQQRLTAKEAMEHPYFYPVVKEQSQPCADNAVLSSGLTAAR
Protocol: as §1

[24] = target: SRC (Homo sapiens (Human), UniProt P12931)
Sequence of SRC (P12931 whole entry, looked up): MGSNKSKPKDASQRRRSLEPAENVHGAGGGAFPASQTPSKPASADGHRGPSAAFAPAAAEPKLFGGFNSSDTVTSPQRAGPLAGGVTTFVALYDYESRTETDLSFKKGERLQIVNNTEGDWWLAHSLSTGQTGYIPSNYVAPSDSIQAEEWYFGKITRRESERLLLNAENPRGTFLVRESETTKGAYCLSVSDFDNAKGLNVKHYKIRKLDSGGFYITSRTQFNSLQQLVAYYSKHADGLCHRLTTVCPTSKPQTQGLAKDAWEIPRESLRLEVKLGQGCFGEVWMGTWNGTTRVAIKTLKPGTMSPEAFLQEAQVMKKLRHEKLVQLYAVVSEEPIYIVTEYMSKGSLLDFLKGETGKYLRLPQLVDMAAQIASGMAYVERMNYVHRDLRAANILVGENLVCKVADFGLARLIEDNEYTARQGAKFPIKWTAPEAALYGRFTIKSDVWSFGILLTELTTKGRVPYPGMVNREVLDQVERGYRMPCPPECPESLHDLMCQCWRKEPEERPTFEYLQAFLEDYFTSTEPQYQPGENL
Protocol: as §1

[25] = target: Lyn (Homo sapiens (Human), UniProt P07948)
Protocol: as §1

[26] = target: Rsk3 (Homo sapiens (Human), UniProt Q15349)
Protocol: as §1

[27] = target: MuSK (Homo sapiens (Human), UniProt O15146)
Protocol: as §1

[28] = target: PKCzeta (Homo sapiens (Human), UniProt Q05513)
Protocol: as §1

[29] = target: Plk1 (Homo sapiens (Human), UniProt P53350)
Protocol: as §1

[30] = target: MEK1 (Homo sapiens (Human), UniProt Q02750)
Protocol: as §1

[31] = target: PKCbetaI (Homo sapiens (Human), UniProt P05771)
Protocol: as §1

[32] = target: TBK1 (Homo sapiens (Human), UniProt Q9UHD2)
Protocol: as §1

[33] = target: JAK2 (Homo sapiens (Human), UniProt O60674)
Protocol: as §1

[34] = target: WNK3 (Homo sapiens (Human), UniProt Q9BYP7)
Protocol: as §1

[35] = target: NEK7 (Homo sapiens (Human), UniProt Q8TDX7)
Protocol: as §1

[36] = target: JNK3 (Homo sapiens (Human), UniProt P53779)
Protocol: as §1

[37] = target: HIPK2 (Homo sapiens (Human), UniProt Q9H2X6)
Sequence of HIPK2 (Q9H2X6 whole entry): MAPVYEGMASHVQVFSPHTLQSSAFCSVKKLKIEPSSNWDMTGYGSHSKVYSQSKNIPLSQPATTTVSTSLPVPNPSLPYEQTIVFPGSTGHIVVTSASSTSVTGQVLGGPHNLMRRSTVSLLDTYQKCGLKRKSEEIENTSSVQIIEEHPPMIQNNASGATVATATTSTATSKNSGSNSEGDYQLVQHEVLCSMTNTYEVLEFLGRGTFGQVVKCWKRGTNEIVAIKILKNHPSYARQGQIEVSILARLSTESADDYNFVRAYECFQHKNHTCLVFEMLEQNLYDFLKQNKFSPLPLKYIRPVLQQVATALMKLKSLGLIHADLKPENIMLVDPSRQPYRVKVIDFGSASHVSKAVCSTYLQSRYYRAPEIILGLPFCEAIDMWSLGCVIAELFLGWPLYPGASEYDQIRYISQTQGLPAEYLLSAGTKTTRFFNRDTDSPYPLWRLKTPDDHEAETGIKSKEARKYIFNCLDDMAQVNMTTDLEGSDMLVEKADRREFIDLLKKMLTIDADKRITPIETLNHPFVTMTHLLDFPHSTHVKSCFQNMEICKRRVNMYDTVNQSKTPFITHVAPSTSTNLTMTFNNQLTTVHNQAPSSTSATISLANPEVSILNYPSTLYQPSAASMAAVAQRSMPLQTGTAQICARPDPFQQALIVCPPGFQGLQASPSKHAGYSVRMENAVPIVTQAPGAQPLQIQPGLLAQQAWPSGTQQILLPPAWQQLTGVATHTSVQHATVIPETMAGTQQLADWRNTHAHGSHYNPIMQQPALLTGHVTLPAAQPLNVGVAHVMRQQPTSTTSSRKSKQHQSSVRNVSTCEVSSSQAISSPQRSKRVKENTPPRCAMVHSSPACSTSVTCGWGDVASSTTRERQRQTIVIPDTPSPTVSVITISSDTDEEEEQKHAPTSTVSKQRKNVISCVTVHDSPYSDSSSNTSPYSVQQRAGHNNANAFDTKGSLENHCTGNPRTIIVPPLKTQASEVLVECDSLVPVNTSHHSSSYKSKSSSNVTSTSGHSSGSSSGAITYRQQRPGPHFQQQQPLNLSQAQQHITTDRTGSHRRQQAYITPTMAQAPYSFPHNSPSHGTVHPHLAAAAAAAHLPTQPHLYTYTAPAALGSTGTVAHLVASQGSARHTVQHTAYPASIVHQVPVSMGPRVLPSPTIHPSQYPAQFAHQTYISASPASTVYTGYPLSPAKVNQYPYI
Protocol: as §1

[38] = target: CAMK4 (Homo sapiens (Human), UniProt Q16566)
Sequence of CAMK4 (Q16566 whole entry): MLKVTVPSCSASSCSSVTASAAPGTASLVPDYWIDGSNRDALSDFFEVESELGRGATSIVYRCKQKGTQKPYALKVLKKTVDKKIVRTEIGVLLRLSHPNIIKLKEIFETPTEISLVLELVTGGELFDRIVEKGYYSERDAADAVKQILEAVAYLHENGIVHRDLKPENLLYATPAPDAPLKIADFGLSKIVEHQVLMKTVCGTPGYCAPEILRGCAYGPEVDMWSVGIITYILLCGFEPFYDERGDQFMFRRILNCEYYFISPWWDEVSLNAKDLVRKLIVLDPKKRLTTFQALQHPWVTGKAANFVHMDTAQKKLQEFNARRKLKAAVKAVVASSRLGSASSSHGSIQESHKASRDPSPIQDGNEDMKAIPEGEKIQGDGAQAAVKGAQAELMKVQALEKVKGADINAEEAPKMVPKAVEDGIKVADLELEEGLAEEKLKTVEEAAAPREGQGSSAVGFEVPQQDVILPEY
Protocol: as §1

[39] = target: MARK2 (Homo sapiens (Human), UniProt Q7KZI7)
Protocol: as §1

[40] = target: EphA3 (Homo sapiens (Human), UniProt P29320)
Protocol: as §1

Row | SMILES | Avg POC [1] [POC] | Avg POC [2] [POC] | Avg POC [3] [POC] | Avg POC [4] [POC] | Avg POC [5] [POC] | Avg POC [6] [POC] | Avg POC [7] [POC] | Avg POC [8] [POC] | Avg POC [9] [POC] | Avg POC [10] [POC] | Avg POC [11] [POC] | Avg POC [12] [POC] | Avg POC [13] [POC] | Avg POC [14] [POC] | Avg POC [15] [POC] | Avg POC [16] [POC] | Avg POC [17] [POC] | Avg POC [18] [POC] | Avg POC [19] [POC] | Avg POC [20] [POC] | other results
1 | COCCN1C[C@@H](NC(=O)Nc2c(C)c(-c3cnc(C)nc3)nn2-c2ccccc2)[C@H](c2cc(F)cc(F)c2)C1 [Example 14, 1-((3S,4R)-4-(3,5-difluorophenyl)-1-(2-methoxyethyl)pyrrolidin-3-yl)-3-(4-methyl-3-(2-methylpyrimidin-5-yl)-1-phenyl-1H-pyrazol-5-yl)urea] | 98.5 | 120 | 97 | 98.5 | 101 | 113 | 93 | 93 | 105 | 99 | 106.5 | 104 | 99.5 | 97 | 108.5 | 99.5 | 98 | 103 | 99.5 | 102.5 | Avg POC [21]: 101.5 POC; Avg POC [22]: 97 POC; Avg POC [23]: 120 POC; Avg POC [24]: 103.5 POC; Avg POC [25]: 105.5 POC; Avg POC [26]: 96 POC; Avg POC [27]: 98.5 POC; Avg POC [28]: 99.5 POC; Avg POC [29]: 113 POC; Avg POC [30]: 91 POC; Avg POC [31]: 101 POC; Avg POC [32]: 103 POC; Avg POC [33]: 109 POC; Avg POC [34]: 96 POC; Avg POC [35]: 106.5 POC; Avg POC [36]: 121 POC; Avg POC [37]: 99 POC; Avg POC [38]: 83.5 POC; Avg POC [39]: 99.5 POC; Avg POC [40]: 106.5 POC
2 | COCCN1C[C@@H](NC(=O)Nc2c(C)c(-c3ccnc(C)c3)nn2-c2ccccc2)[C@H](c2ccc(F)c(F)c2)C1 [Example 2, 1-((3S,4R)-4-(3,4-difluorophenyl)-1-(2-methoxyethyl)pyrrolidin-3-yl)-3-(4-methyl-3-(2-methylpyridin-4-yl)-1-phenyl-1H-pyrazol-5-yl)urea] | 111.5 | 109.5 | 96.5 | 103 | 99.5 | 108.5 | 90.5 | 101.5 | 98 | 97 | 101.5 | 97.5 | 98 | 100 | 116.5 | 106.5 | 105.5 | 98.5 | 96 | 97 | Avg POC [21]: 98 POC; Avg POC [22]: 104 POC; Avg POC [23]: 119.5 POC; Avg POC [24]: 105 POC; Avg POC [25]: 112 POC; Avg POC [26]: 98 POC; Avg POC [27]: 103.5 POC; Avg POC [28]: 100 POC; Avg POC [29]: 100 POC; Avg POC [30]: 100.5 POC; Avg POC [31]: 95 POC; Avg POC [32]: 116.5 POC; Avg POC [33]: 112.5 POC; Avg POC [34]: 99 POC; Avg POC [35]: 117 POC; Avg POC [36]: 111.5 POC; Avg POC [37]: 95 POC; Avg POC [38]: 97.5 POC; Avg POC [39]: 90 POC; Avg POC [40]: 101.5 POC
